# Measurements: patent publication US8399425B2, “Alleviating neuropathic pain with EETs and sEH inhibitors” (The Regents of the University of California, priority 2007, dated 2013)
# “Also recorded” adds a separate entry of the source.
# Legend:
# [1] = test system: streptozocin induced neuropathic pain; assay: von Frey test (mechanical allodynia) in streptozocin neuropathic rats; format: in vivo, rat; details: for neuropathic pain, von Frey test: streptozocin (50 mg/kg iv) rats, subcutaneous, dose and time response
# Procedure: Male Sprague-Dawley rats weighing 250-300 grains were used. Animals were individually housed at UC Davis Animal Resource Facility under standard conditions with free access to food and water, and maintained for at least 1 week before the experiments. Pain was quantified using three tests, the hind paw withdrawal latency test, the mechanical hyperalgesia test and the mechanical allodynia test. All the experiments were performed during the daytime.
# Rats were first trained to the experimental chamber in two separate sessions. On the day of the induction of neuropathy, the animals' basal response to all three tests were measured and then streptozocin (50 mg/kg) was administered intravenously. Animals were then followed over time for the development of neuropathic pain. An inhibitor of sEH was administered subcutaneously one week after the onset of pain symptoms. […] Compounds were formulated by dissolving them in ethanol and mixing with trans free oleic oil. At least six animals per group were used. The Von Frey test was conducted by stimulating the plantar surface of the rats' hind paw with a calibrated filament connected to a force transducer. As this filament is applied the amount of force exerted on the paw increases and the animal withdraws its paw when the force reaches its threshold. […] In the Randal-Selitto test a similar principle is used. The animals' hind paw is placed between a flat surface and a pointed tip of a force transducer. The pointed tip exerts force on the dorsal face of the paw. […] The two tests are complementary, but depend on the activity of different groups of nociceptors.
# Treatments and behavioral nociceptive tests. […] Following baseline measurements, rats were first treated with 200 μl of vehicle or compound-formulated cream by topical application to one hindpaw, LPS ([…] in 50 μl 0.9% NaCl) was injected into the plantar surface of the treated paw. For subcutaneous administration, compounds were injected immediately after intraplantar LPS. […] A probe fitted with a filament that is connected to a force transducer was applied to the plantar hind paw surface through a wire-mesh platform until eliciting a withdrawal reflex. The duration of heat application or the force (gr) necessary to elicit a withdrawal was designated as TWL and MWT. The steroidogenesis inhibitors were applied 2 hours before sEHI and LPS administration. Diabetes was induced by intravenous injection of 50 mg/kg streptozocin (STZ) in saline following baseline measurements. Diabetic animals were tested at least one week after STZ administration. Three measurements were taken from each animal at each time point and average responses were converted to percent analgesia index based on each animals' baseline response.
# TSPO = biological target: T1, TSPO (Rattus norvegicus, UniProt P16257); assay: [3H] PK 11195 radioligand displacement from TSPO, rat heart mitochondria; format: binding; details: individual regioisomers compared with the mixture
# T1 construct: rat heart mitochondria was isolated and incubated with; tissue CEREP (France); host or cells: rat heart mitochondria
# Procedure: Binding studies. Radioligand binding studies were conducted by CEREP (France) according to standard procedures as described by LeFur. Briefly, rat heart mitochondria was isolated and incubated with [^3H] PK11195 at 30° C. in the presence of increasing concentrations of EET-me analogues or EET free acids. Reaction mixture was passed through glass wool filters washed 3 times using cold binding buffer and dried by air. Filter were than counted and IC50 values were calculated.
# StAR mRNA = StAR mRNA expression in spinal cord and brain (qRT-PCR); format: in vivo, rat; details: for StAR expression in spinal cord and brain: intrathecal, alone, within 30 minutes
# Procedure: Blood samples for chemical analysis were collected by cardiac puncture under deep isoflurane anesthesia. Plasma was immediately separated by centrifuging at 4000 rpm for 10 minutes in a cold centrifuge. Rats were then decapitated under anesthesia and tissues were removed and flash frozen in liquid nitrogen. For sampling the brain after decapitation, the scalp was first removed providing accessibility to the cranial plates. A midline incision was introduced to detach the cranial plates and brain was carefully exposed by peeling the plates. The brain was removed from the skull using a spatula, immediately placed in liquid nitrogen, and stored at −80° C. The prefrontal area was removed by a coronal cut to the distal one third of the brain from the frozen tissue. The cerebellum was also removed and the brain was hemisected. […] Plasma hormone levels were quantified using RIA. For quantitative RT-PCR, standard procedures were followed.
# LPS induced hyperalgesia = assay: intraplantar LPS inflammatory pain, thermal hindpaw withdrawal latency; format: in vivo, rat; details: for inflammatory pain related behavior: LPS inflammation; for analgesic activity of AEPU on co-administration: 10 mg/kg dermal, co-administered with AEPU
# Procedure: Treatments and behavioral nociceptive tests. Behavioral nociceptive testing was conducted by assessing thermal hindpaw withdrawal latencies (TWL) using a commercial Hargreaves (Hargreaves et. al […]) apparatus (IITC, Woodland Hills, Calif.), or by determining mechanical hindpaw withdrawal thresholds (MWT) using an electronic von Frey anesthesiometer (IITC, Woodland. Hills, Calif.). For […] determination, a maximum stimulus duration of 22 s was imposed to prevent tissue damage. Following baseline measurements, rats were first treated with 200 μl of vehicle or compound-formulated cream by topical application to one hindpaw, LPS ([…] in 50 μl 0.9% NaCl) was injected into the plantar surface of the treated paw. For subcutaneous administration, compounds were injected immediately after intraplantar LPS. Animals were then placed in acrylic chambers on a glass platform maintained at a temperature of 30±1° C. for measurement or on a wire-mesh platform for MWT measurements. A probe fitted with a filament that is connected to a force transducer was applied to the plantar hind paw surface through a wire-mesh platform until eliciting a withdrawal reflex. The duration of heat application or the force (gr) necessary to elicit a withdrawal was designated as TWL and MWT. The steroidogenesis inhibitors were applied 2 hours before sEHI and LPS administration. Diabetes was induced by intravenous injection of 50 mg/kg streptozocin (STZ) in saline following baseline measurements. Diabetic animals were tested at least one week after STZ administration. Three measurements were taken from each animal at each time point and average responses were converted to percent analgesia index based on each animals' baseline response.
# ICER = ICER expression in spinal cord; format: in vivo, rat; details: LPS
# Procedure: Blood samples for chemical analysis were collected by cardiac puncture under deep isoflurane anesthesia. Plasma was immediately separated by centrifuging at 4000 rpm for 10 minutes in a cold centrifuge. Rats were then decapitated under anesthesia and tissues were removed and flash frozen in liquid nitrogen. For sampling the brain after decapitation, the scalp was first removed providing accessibility to the cranial plates. A midline incision was introduced to detach the cranial plates and brain was carefully exposed by peeling the plates. The brain was removed from the skull using a spatula, immediately placed in liquid nitrogen, and stored at −80° C. The prefrontal area was removed by a coronal cut to the distal one third of the brain from the frozen tissue. The cerebellum was also removed and the brain was hemisected. Saggital slices with a thickness of 2 mm and weighing 100-200 mg were cut from both hemispheres lateral to the thalamus and stored to be used for qRT-PCR or chemical analysis. Plasma hormone levels were quantified using RIA. For quantitative RT-PCR, standard procedures were followed.
# [2] = test system: streptozocin induced neuropathic pain; assay: mechanical hyperalgesia test (Randal-Selitto) in streptozocin neuropathic rats; format: in vivo, rat
# Procedure: Male Sprague-Dawley rats weighing 250-300 grains were used. Animals were individually housed at UC Davis Animal Resource Facility under standard conditions with free access to food and water, and maintained for at least 1 week before the experiments. Pain was quantified using three tests, the hind paw withdrawal latency test, the mechanical hyperalgesia test and the mechanical allodynia test. All the experiments were performed during the daytime. Rats were first trained to the experimental chamber in two separate sessions. On the day of the induction of neuropathy, the animals' basal response to all three tests were measured and then streptozocin (50 mg/kg) was administered intravenously. Animals were then followed over time for the development of neuropathic pain. An inhibitor of sEH was administered subcutaneously one week after the onset of pain symptoms. […] Pain response was measured at 60, 120, 240 and 480 minutes after the administration of the sEHI. Compounds were formulated by dissolving them in ethanol and mixing with trans free oleic oil. At least six animals per group were used. The Von Frey test was conducted by stimulating the plantar surface of the rats' hind paw with a calibrated filament connected to a force transducer. As this filament is applied the amount of force exerted on the paw increases and the animal withdraws its paw when the force reaches its threshold. […] In the Randal-Selitto test a similar principle is used. The animals' hind paw is placed between a flat surface and a pointed tip of a force transducer. The pointed tip exerts force on the dorsal face of the paw. […] The two tests are complementary, but depend on the activity of different groups of nociceptors.
# COX-2 mRNA = assay: spinal COX-2 mRNA after intraplantar LPS; format: in vivo, rat; details: spinal cord
structure (smiles),measurement,setting,value
"O=C(NC12CC3CC(CC(C3)C1)C2)N[C@H]1CC[C@H](Oc2ccc(C(=O)O)cc2)CC1 (relative stereo) [t-AUCB, trans-4-[4-(3-adamantan-1-yl-ureido)-cyclohexyloxy]-benzoic acid]","neuropathic pain, von Frey test",[1],reduced and at higher doses eliminated
"CCCCC/C=C\C/C=C\C/C=C\CC1OC1CCCC(=O)OC (centres unmarked) [5,6-EET-me]",activity on TSPO,TSPO,less potent than the mixture were active and more efficacious
"CCCCC/C=C\C/C=C\CC1OC1C/C=C\CCCC(=O)OC (centres unmarked) [8,9-EET-me]",activity on TSPO,TSPO,completely lacked activity
"Nc1ncnc2c1nc(Br)n2[C@@H]1O[C@@H]2COP(=O)(O)O[C@H]2[C@H]1O [8-Br cAMP, reference compound]",StAR expression in spinal cord and brain,StAR mRNA,did not change
"CCCCCC1OC1C/C=C\C/C=C\C/C=C\CCCC(=O)OC (centres unmarked) [14,15-EET-me]",activity on TSPO,TSPO,less potent than the mixture were active and more efficacious
"CCOCCOCCOCCCCCNC(=O)NC12CC3CC(CC(C3)C1)C2 [AEPU, Adamantan-1-yl-3-{5-[2-(2-ethoxyethoxy)ethoxy]pentyl}urea]",paw withdrawal latency in response to a mild heat stimulus,"LPS induced hyperalgesia; 50 mg/kg dermally, intraplantar LPS",transiently increased the paw withdrawal latency
same,inflammatory pain related behavior,LPS induced hyperalgesia,had a transient effect on pain however remained analgesic
same,StAR message in the brain,StAR mRNA; compound alone,neither local inflammation nor AEPU alone elicited an increase
same,StAR message in the brain,StAR mRNA; inflamed animals treated with compound,two fold increase
same,StAR mRNA in the brain,"StAR mRNA; intrathecal with 8-Br cAMP (100 μg), 30 min",elicited a parallel increase in the brain
same,StAR expression in the spinal cord,"StAR mRNA; intrathecal with 8-Br cAMP (100 μg), 30 min, EETs 5 μg, AEPU 1 μg",increased the expression level of StAR in the spinal cord
same,StAR expression in spinal cord and brain,StAR mRNA,did not change
same,increase in ICER message,ICER,up to 3 fold
"O=C(O)CCCCCCCCCCCNC(=O)NC12CC3CC(CC(C3)C1)C2 [AUDA, 12-(3-Adamantan-1-yl-ureido)dodecanoic acid]",decrease in withdrawal threshold,[1]; moderate dose,completely reversed the decrease in withdrawal threshold
same,pain scores of diabetic rats,[1]; neuropathic pain model,dose and time dependent improvement in pain scores
same,duration of effect,"[1]; rat, in vivo",lost its effect after four hours
same,"neuropathic pain, von Frey test",[1],reduced neuropathic pain in a dose and time dependant manner
same,"pain, mechanical hyperalgesia test (FIG. 3)","[2]; 10, 20 and 50 mg/kg",reduced pain in a time and dose dependant
same,mechanical allodynia induced by diabetic neuropathy (FIG. 3 legend),[2]; compound 1010 at equivalent dose,reversed
CC(=O)N1CCC(NC(=O)Nc2ccc(OC(F)(F)F)cc2)CC1 [TPAU],analgesic potency compared with morphine,LPS induced hyperalgesia; 10 mg/kg vs morphine 1 mg/kg,potency strikingly comparable to that of a moderate dose of morphine
same,inflammatory pain related behavior,LPS induced hyperalgesia,particularly more effective; also recorded: substantially reduced hyperalgesia
same,"response to stimuli, motor activity",LPS induced hyperalgesia; treated animals,no reduction in response to stimuli or gross signs of loss of motor activity
same,"neuropathic pain, von Frey test",[1],reduced and at higher doses eliminated
same,spinal COX-2 mRNA increase,COX-2 mRNA,particularly more effective
"CCC1(c2ccc(N)cc2)CCC(=O)NC1=O (centres unmarked) [aminoglutethimide, reference compound]",analgesic activity of AEPU on co-administration,LPS induced hyperalgesia,completely abolished
"CC(C)(C)NC(=O)[C@H]1CC[C@H]2[C@@H]3CC[C@H]4NC(=O)C=C[C@]4(C)[C@H]3CC[C@]12C [finasteride, reference compound]",analgesic activity of AEPU on co-administration,LPS induced hyperalgesia,completely abolished
